A short description of data set [1]: Microsomal stability assay, RLM. It counts as in vitro ADME. To be noted: male, Sprague Dawley, pooled rat liver microsomes, pH 7.4; 3 μM compound, 0.5 mg/ml rat liver microsomes, 37° C., 2 mM NADPH; read-out: RLM t1/2. How it is done: (§1) Assay 3: Microsomal Stability Assay
(§2) Compounds were tested on their stability in human, rat and mouse liver microsomal preparations (HLM, RLM and MLM respectively). At a final concentration of 3 μM, compounds were incubated at 37° C. with 0.5 mg/ml human, rat or mouse liver microsomes in a buffer containing 50 mM phosphate, pH 7.4 and 2 mM NADPH. Pooled human liver microsomes or pooled male rat liver microsomes (Sprague Dawley) were obtained from NatuTec (Frankfurt, Germany). Incubations without NADPH served as negative controls. Reactions were stopped after 0, 15, 30, 45 or 60 min by the addition of acetonitrile and microsomes were pelleted by centrifugation (10 min at 6200×g). Supernatants were analyzed by HPLC regarding the concentration of mother compound. Finally, the half life of compounds in the regarding microsomal preparation was calculated.

Data set [2] is described as follows: Microsomal stability assay, HLM. To be noted: pooled human liver microsomes, pH 7.4; 3 μM compound, 0.5 mg/ml human liver microsomes, 37° C., 2 mM NADPH; read-out: HLM t1/2. It counts as in vitro ADME. Here is the method:
as §1, §2
A general note: Liver microsomes are a subcellular fraction often used to study metabolism.

Data set [3] concerns human melanoma A375 cells. The data set can be described thus: Tumor cell proliferation assay (ATP Lite), A375. It counts as cell-based. The settings on record: A-375, 96 h, 4 days. In a few lines:
(§3)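 Cells seeded at 1500/well (C26) or 2000/well (A375, MiaPaCa-2) grew overnight, then were exposed to serially diluted compounds (0.25% DMSO final) for 4 days in serum-containing DMEM or RPMI. Viability read by ATPlite luminescence; IC50 is the concentration giving 50% cell death.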

In data set [4] the target is human MEK1 (Homo sapiens, UniProt Q02750). The data set can be described thus: MEK-1 Enzyme Assay (LANCE-HTRF). It counts as biochemical. The settings on record: 100 nM MEK1, 15 μM ATP, 300 nM ERK2, two hours; read-out: MEK inhibition. In short, it runs like this:
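TR-FRET readout of MEK1-catalysed ERK1 phosphorylation; after a 2 h reaction, Eu-anti-PY20 (5 nM) and anti-GST-APC (50 nM) were added in buffer with 50 mM EDTA and 0.05% BSA, then incubated 1 h in the dark.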

In data set [5] the test system is Murine colon C26 cells. Put plainly: Tumor cell proliferation assay (ATP Lite), C26. Type of data set: cell-based. The settings on record: Mus musculus, 96 h, 4 days. In short, it runs like this: as §3
Data set [6] concerns Caco-2 cells. Put plainly: Caco-2 permeability assay. Type of data set: in vitro ADME. The settings on record: 10 μM, pH 7.4, 120 minutes. How it is done:
Assay 4: Caco-2 Permeability Assay
Caco-2 cells obtained from the ATCC at passage number 27 are used. Cells (passage number 40-60) were seeded on to Millipore Multiscreen Caco-2 plates or Falcon HTS inserts at 1×10^5 cells/cm2. Cells were cultured for 20 days in DMEM and media was changed every two or three days. On day 20 the permeability study was performed.
Permeability was studied by applying compound to the apical surface of cell monolayers and measuring compound permeation into the basolateral compartment. The experiment was also performed in the reverse direction (B-A) to investigate active transport. Hanks Balanced Salt Solution (HBSS) pH 7.4 buffer with 25 mM HEPES and 10 mM glucose at 37° C. was used as the medium in permeability studies. Incubations were carried out in an atmosphere of 5% CO2 with a relative humidity of 95%.
The monolayers were prepared by rinsing both basolateral and apical surfaces twice with HBSS at 37° C. Cells were then incubated with HBSS in both apical and basolateral compartments for 40 minutes to stabilize physiological parameters.
HBSS was then removed from the apical compartment and replaced with test compound dosing solutions. The solutions were made by diluting 10 mM DMSO concentrates with HBSS to give a final test compound concentration of 10 μM (final DMSO concentration adjusted to 1%). The fluorescent integrity marker lucifer yellow was also included in the dosing solution. Analytical standards were made from dosing solutions. Test compound permeability was assessed in duplicate. On each plate compounds of known permeability characteristics were run as controls.
The apical compartment inserts were then placed into ‘companion’ plates containing fresh HBSS. For basolateral to apical (B-A) experiments the experiment was initiated by replacing buffer in the inserts then placing them in companion plates containing dosing solutions. At 120 minutes the companion plate was removed and apical and basolateral samples diluted for analysis by LC-MS/MS (the donor compartment was also sampled to permit determination of starting concentration after non-specific binding has occurred).
The integrity of the monolayers throughout the experiment is checked by monitoring lucifer yellow permeation using fluorimetric analysis. Lucifer yellow permeation was low if monolayers have not been damaged. Test and control compounds were quantified by LC-MS/MS cassette analysis using a 5-point calibration with appropriate dilution of the samples. Should lucifer yellow Papps were above QC limits in more than one well per test compound, the compound was re-tested.
The permeability coefficient for each compound (Papp) was calculated from the following equation: Papp=[dQ/dt]/[C0×A]
Whereby dQ/dt is the rate of permeation of the drug across the cells, C0 is the donor compartment concentration at time zero and A is the area of the cell monolayer. C0 is obtained from analysis of the donor compartment at the end of the incubation period.
Test compounds were grouped into low, medium or high absorption potential based on comparison with control compounds, which have known human absorption.
In addition, permeation was studied in both directions across the cells, and an asymmetry index was reported from mean A-B and B-A data. This was derived from: Papp(B-A)/Papp(A-B)
Wherein “+” means a caco A-B and caco B-A value of 1-10 and “++” means a caco A-B and caco B-A value of 11-100.

Data set [7] is described as follows: Microsomal stability assay, MLM. Type of data set: in vitro ADME. The settings on record: pH 7.4; 3 μM compound, 0.5 mg/ml mouse liver microsomes, 37° C., 2 mM NADPH; read-out: MLM t1/2. Here is the method: as §1, §2
Data set [8] relates to Tumors. To be noted: patients; cited from earlier work.
For data set [9] the following is noted: cited from earlier work.

Chain of human MEK1 (Q02750 whole entry): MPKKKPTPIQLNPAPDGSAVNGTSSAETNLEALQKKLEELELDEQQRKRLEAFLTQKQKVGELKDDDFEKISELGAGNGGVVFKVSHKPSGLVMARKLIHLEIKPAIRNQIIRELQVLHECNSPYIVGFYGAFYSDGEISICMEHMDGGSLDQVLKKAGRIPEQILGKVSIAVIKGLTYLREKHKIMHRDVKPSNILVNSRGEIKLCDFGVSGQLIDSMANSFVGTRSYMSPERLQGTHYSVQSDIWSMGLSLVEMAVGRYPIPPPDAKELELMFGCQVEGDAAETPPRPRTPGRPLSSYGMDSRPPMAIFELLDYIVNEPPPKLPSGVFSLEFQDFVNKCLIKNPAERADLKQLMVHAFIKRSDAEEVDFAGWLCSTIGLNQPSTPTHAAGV

As to `Cc1cc(I)ccc1Nc1cnccc1C(=O)NOC[C@H](O)CO` [Example 9, 3-[(2-methyl-4-iodophenyl)amino]-N-{[(2R)-2,3-dihydroxypropyl]oxy}-isonicotinamide], the half-life at 3 µM in data set [1], in data set [2] and in [7] was > 2 h each time. Also, the IC50 in data set [3] is ≤ 3 µM; in data set [4] it was < 1 µM; in data set [5], 3 to 10 µM. Also, in data set [6] (Papp apical to basolateral), the “Caco A-B” value was “+ (a caco A-B and caco B-A value of 1-10)”. In addition, the “Caco B-A” value in [6] (Papp basolateral to apical) was “++ (a caco A-B and caco B-A value of 11-100)”.
For the compound `O=C(NOCC1CC1)c1ccc(F)c(F)c1Nc1ccc(I)cc1Cl` [PD-184352], the “efficacy in clinical phase II trials” value in data set [8] is “lacking efficacy”. In addition, the bioavailability entry in [9] is on record as “low”.

The values are drawn from patent US8524911B2, “3-arylamino pyridine derivatives” (Merck Serono SA, priority 2004, dated 2013).
